Laboratory results as given in US11311520B2, “Substituted dihydroimidazopyridinediones as MKNK1 and MKNK2 inhibitors” (Bayer Pharma Aktiengesellschaft, priority 2017, dated 2022).
pIC50: −log10 of the molar value. Counter-ions that a name gives are not always drawn.

The molecules below were run against human full-length MKNK1 (Homo sapiens (Human), UniProt Q9BUB5, T344D) (assay: MKNK1 kinase high ATP assay (TR-FRET)). Conditions: 2 mM ATP, 15 min preincubation with enzyme, GST-MKNK1 (T344D).
Type: biochemical
In short: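 GST-tagged full-length human MKNK1 (1-424, T344D, baculovirus-expressed) preincubated 15 min at 22 °C with compound, then reacted 30 min at 22 °C with 2 mM ATP and 0.06 μM biotinylated peptide (final) in HEPES pH 7.5. Phospho-substrate by TR-FRET (665/622 nm ratio), normalised to no-inhibitor and no-enzyme controls.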

Chain of human full-length MKNK1 (Q9BUB5 other isoform, or with tags, fused parts or gaps T344D): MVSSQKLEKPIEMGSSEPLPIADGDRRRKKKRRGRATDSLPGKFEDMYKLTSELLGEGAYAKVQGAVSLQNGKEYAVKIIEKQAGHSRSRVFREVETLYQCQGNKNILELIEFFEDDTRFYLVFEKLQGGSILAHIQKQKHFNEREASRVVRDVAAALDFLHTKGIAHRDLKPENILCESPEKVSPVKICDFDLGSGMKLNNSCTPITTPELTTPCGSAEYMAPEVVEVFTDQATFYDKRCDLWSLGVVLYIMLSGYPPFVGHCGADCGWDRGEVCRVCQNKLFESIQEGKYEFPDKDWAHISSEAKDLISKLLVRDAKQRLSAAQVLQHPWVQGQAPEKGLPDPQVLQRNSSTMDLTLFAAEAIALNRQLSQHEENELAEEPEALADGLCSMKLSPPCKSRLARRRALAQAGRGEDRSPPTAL

Compared with `Cc1cc(Nc2ncnc3c2CN(S(=O)(=O)C(F)(F)F)C3)c(=O)n2c1C(=O)NC21CCCCC1` [Example 72, 8′-methyl-6′-({6-[(trifluoromethyl)sulfonyl]-6,7-dihydro-5H-pyrrolo[3,4-d]pyrimidin-4-yl}amino)-2′H-spiro[cyclohexane-1,3′-imidazo[1,5-a]pyridine]-1′,5′-dione], `Cc1cc(Nc2ncnc3c2CN(S(=O)(=O)CC(F)(F)F)C3)c(=O)n2c1C(=O)NC21CCCCC1` [Example 73, 8′-methyl-6′-({6-[(2,2,2-trifluoroethyl)sulfonyl]-6,7-dihydro-5H-pyrrolo[3,4-d]pyrimidin-4-yl}amino)-2′H-spiro[cyclohexane-1,3′-imidazo[1,5-a]pyridine]-1′,5′-dione] is 0.75 log units lower in pIC50: 7.52 for the first, 6.77 for the second.

Compared with `Cc1cc(Nc2ncnc3sc(C(=O)N4CC(N)C4)cc23)c(=O)n2c1C(=O)NC21CCCC1` [Example 74, 6′-({6-[(3-Aminoazetidin-1-yl)carbonyl]thieno[2,3-d]pyrimidin-4-yl}amino)-8′-methyl-2′H-spiro[cyclopentane-1,3′-imidazo[1,5-a]pyridine]-1′,5′-dione], `Cc1cc(Nc2ncnc3sc(C(=O)N4CC(N)C4)cc23)c(=O)n2c1C(=O)NC21CCC(F)(F)CC1` [Example 84, 6′-({6-[(3-Aminoazetidin-1-yl)carbonyl]thieno[2,3-d]pyrimidin-4-yl}amino)-4,4-difluoro-8′-methyl-2′H-spiro[cyclohexane-1,3′-imidazo[1,5-a]pyridine]-1′,5′-dione] is 0.85 log units lower in pIC50: 8.82 for the first, 7.97 for the second.

Compared with `CCNC(=O)N1Cc2ncnc(Nc3cc(C)c4n(c3=O)C3(CCCCC3)NC4=O)c2C1` [Example 75, N-Ethyl-4-[(8′-methyl-1′,5′-dioxo-1′,5′-dihydro-2′H-spiro[cyclohexane-1,3′-imidazo[1,5-a]pyridin]-6′-yl)amino]-5,7-dihydro-6H-pyrrolo[3,4-d]pyrimidine-6-carboxamide], `CC(=O)N1Cc2ncnc(Nc3cc(C)c4n(c3=O)C3(CCCCC3)NC4=O)c2C1` [Example 78, 6′-[(6-Acetyl-6,7-dihydro-5H-pyrrolo[3,4-d]pyrimidin-4-yl)amino]-8′-methyl-2′H-spiro[cyclohexane-1,3′-imidazo[1,5-a]pyridine]-1′,5′-dione] is 0.50 log units lower in pIC50: 7.92 for the first, 7.42 for the second.

Going from `CCOC(=O)N1Cc2ncnc(Nc3cc(C)c4n(c3=O)C3(CCCCC3)NC4=O)c2C1` [Example 76, Ethyl 4-[(8′-methyl-1′,5′-dioxo-1′,5′-dihydro-2′H-spiro[cyclohexane-1,3′-imidazo[1,5-a]pyridin]-6′-yl)amino]-5,7-dihydro-6H-pyrrolo[3,4-d]pyrimidine-6-carboxylate] to `Cc1cc(Nc2ncnc3c2CN(C(=O)[C@@H]2CCC(=O)N2)C3)c(=O)n2c1C(=O)NC21CCCCC1` [Example 77, 8′-Methyl-6′-[(6-{[(2S)-5-oxopyrrolidin-2-yl]carbonyl}-6,7-dihydro-5H-pyrrolo[3,4-cl]pyrimidin-4-yl)amino]-2′H-spiro[cyclohexane-1,3′-imidazo[1,5-a]pyridine]-1′,5′-dione], the pIC50 falls from 7.75 to 7.25 (0.50 log units).

Compared with `Cc1cc(Nc2ncnc3c2CN(S(=O)(=O)c2ccccn2)C3)c(=O)n2c1C(=O)NC21CCCCC1` [Example 79, 8′-Methyl-6′-{[6-(pyridin-2-ylsulfonyl)-6,7-dihydro-5H-pyrrolo[3,4-d]pyrimidin-4-yl]amino}-2′H-spiro[cyclohexane-1,3′-imidazo[1,5-a]pyridine]-1′,5′-dione], `Cc1cc(Nc2ncnc3sc(C(=O)N4C[C@H]5C[C@@H]4CO5)cc23)c(=O)n2c1C(=O)NC21CCCC1` [Example 96, 8′-Methyl-6′-({6-[(1R,4R)-2-oxa-5-azabicyclo[2.2.1]hept-5-ylcarbonyl]thieno[2,3-d]pyrimidin-4-yl}amino)-2′H-spiro[cyclopentane-1,3′-imidazo[1,5-a]pyridine]-1′,5′-dione] is 1.50 log units higher in pIC50: 6.91 for the first, 8.41 for the second.

Going from `Cc1cc(Nc2ncnc3sc(C(=O)O)cc23)c(=O)n2c1C(=O)NC21CCC(F)(F)CC1` [Example 80, 4-[(4,4-Difluoro-8′-methyl-1′,5′-dioxo-1′,5′-dihydro-2′H-spiro[cyclohexane-1,3′-imidazo[1,5-a]pyridin]-6′-yl)amino]thieno[2,3-d]pyrimidine-6-carboxylic acid] to `Cc1cc(Nc2ncnc3sc(C(=O)NCCN(C)C)cc23)c(=O)n2c1C(=O)NC21CCC(F)(F)CC1` [Example 81, 4-[(4,4-Difluoro-8′-methyl-1′,5′-dioxo-1′,5′-dihydro-2′H-spiro[cyclohexane-1,3′-imidazo[1,5-a]pyridin]-6′-yl)amino]-N-[2-(dimethylamino)ethyl]thieno[2,3-d]pyrimidine-6-carboxamide], the pIC50 rises from 6.90 to 8.30 (1.40 log units).

`Cc1cc(Nc2ncnc3sc(C(=O)N(C)CCN(C)C)cc23)c(=O)n2c1C(=O)NC21CCC(F)(F)CC1` [Example 82, 4-[(4,4-Difluoro-8′-methyl-1′,5′-dioxo-1′,5′-dihydro-2′H-spiro[cyclohexane-1,3′-imidazo[1,5-a]pyridin]-6′-yl)amino]-N-[2-(dimethylamino)ethyl]-N-methylthieno[2,3-d]pyrimidine-6-carboxamide] and `Cc1cc(Nc2ncnc3sc(C(=O)N4CC[C@@H](N(C)C)C4)cc23)c(=O)n2c1C(=O)NC21CCC(F)(F)CC1` [Example 86, 6′-[(6-{[(3R)-3-(Dimethylamino)pyrrolidin-1-yl]carbonyl}thieno[2,3-d]pyrimidin-4-yl)amino]-4,4-difluoro-8′-methyl-2′H-spiro[cyclohexane-1,3′-imidazo[1,5-a]pyridine]-1′,5′-dione] are within 0.2 log units of each other in pIC50: 7.74 for the first, 7.92 for the second.

Compared with `Cc1cc(Nc2ncnc3sc(C(=O)N4CC(NC(=O)OC(C)(C)C)C4)cc23)c(=O)n2c1C(=O)NC21CCC(F)(F)CC1` [Example 83, tert-Butyl [1-({4-[(4,4-difluoro-8′-methyl-1′,5′-dioxo-1′,5′-dihydro-2′H-spiro[cyclohexane-1,3′-imidazo[1,5-a]pyridin]-6′-yl)amino]thieno[2,3-d]pyrimidin-6-yl}carbonyl)azetidin-3-yl]carbamate], `Cc1cc(Nc2ncnc3sc(C(=O)N4CC(C#N)C4)cc23)c(=O)n2c1C(=O)NC21CCC(F)(F)CC1` [Example 85, 1-({4-[(4,4-Difluoro-8′-methyl-1′,5′-dioxo-1′,5′-dihydro-2′H-spiro[cyclohexane-1,3′-imidazo[1,5-a]pyridin]-6′-yl)amino]thieno[2,3-d]pyrimidin-6-yl}carbonyl)azetidine-3-carbonitrile] is 0.31 log units lower in pIC50: 7.91 for the first, 7.60 for the second. The first is the more potent here.

First: Cc1cc(Nc2ncnc3sc(C(=O)N4CCC(N(C)C)CC4)cc23)c(=O)n2c1C(=O)NC21CCC(F)(F)CC1 [Example 87, 6′-[(6-{[4-(Dimethylamino)piperidin-1-yl]carbonyl}thieno[2,3-d]pyrimidin-4-yl)amino]-4,4-difluoro-8′-methyl-2′H-spiro[cyclohexane-1,3′-imidazo[1,5-a]pyridine]-1′,5′-dione]
Second: Cc1cc(Nc2ncnc3sc(C(=O)N4C[C@H]5C[C@@H]4CO5)cc23)c(=O)n2c1C(=O)NC21CCC(F)(F)CC1 [Example 88, 4,4-Difluoro-8′-methyl-6′-({6-[(1R,4R)-2-oxa-5-azabicyclo[2.2.1]hept-5-ylcarbonyl]thieno[2,3-d]pyrimidin-4-yl}amino)-2′H-spiro[cyclohexane-1,3′-imidazo[1,5-a]pyridine]-1′,5′-dione]
The pIC50 of the first is 0.23 log units lower: 7.64 for the first, 7.87 for the second. The second is the more potent here.

Compared with `Cc1cc(Nc2ncnc3sccc23)c(=O)n2c1C(=O)NC21CCC(F)(F)CC1` [Example 89, 4,4-Difluoro-8′-methyl-6′-(thieno[2,3-d]pyrimidin-4-ylamino)-2′H-spiro[cyclohexane-1,3′-imidazo[1,5-a]pyridine]-1′,5′-dione], `Cc1cc(Nc2ncnc3[nH]ccc23)c(=O)n2c1C(=O)NC21CCC(F)(F)CC1` [Example 90, 4,4-Difluoro-8′-methyl-6′-(7H-pyrrolo[2,3-d]pyrimidin-4-ylamino)-2′H-spiro[cyclohexane-1,3′-imidazo[1,5-a]pyridine]-1′,5′-dione] is 1.26 log units higher in pIC50: 7.89 for the first, 9.15 for the second. The second is the more potent here.

Compared with `Cc1cc(Nc2ncnc3sc(C(=O)O)c(C)c23)c(=O)n2c1C(=O)NC21CCC(F)(F)CC1` [Example 93, 4-[(4,4-Difluoro-8′-methyl-1′,5′-dioxo-1′,5′-dihydro-2′H-spiro[cyclohexane-1,3′-imidazo[1,5-a]pyridin]-6′-yl)amino]-5-methylthieno[2,3-d]pyrimidine-6-carboxylic acid], `Cc1cc(Nc2ncnc3sc(C(=O)O)c(C)c23)c(=O)n2c1C(=O)NC21CCCC1` [Example 95, 5-Methyl-4-[(8′-methyl-1′,5′-dioxo-1′,5′-dihydro-2′H-spiro[cyclopentane-1,3′-imidazo[1,5-a]pyridin]-6′-yl)amino]thieno[2,3-d]pyrimidine-6-carboxylic acid] is 0.86 log units higher in pIC50: 7.38 for the first, 8.24 for the second.

Work on `Cc1cc(Nc2ncnc(N)n2)c(=O)n2c1C(=O)NC21CCC(F)(F)CC1` [Example 94, 6′-[(4-Amino-1,3,5-triazin-2-yl)amino]-4,4-difluoro-8′-methyl-2′H-spiro[cyclohexane-1,3′-imidazo[1,5-a]pyridine]-1′,5′-dione] yielded a pIC50 of 7.56.

Same assay, conditions: 2 mM ATP, 15 min preincubation with enzyme, GST-MKNK1 (T344D), hydrochloride

With `Cc1cc(Nc2ncnc3[nH]ccc23)c(=O)n2c1C(=O)NC21CCC(F)(F)CC1` [Example 92, 4,4-Difluoro-8′-methyl-6′-(7H-pyrrolo[2,3-d]pyrimidin-4-ylamino)-2′H-spiro[cyclohexane-1,3′-imidazo[1,5-a]pyridine]-1′,5′-dione hydrochloride] the pIC50 was 8.92.

Same assay, conditions: 2 mM ATP, 15 min preincubation with enzyme, GST-MKNK1 (T344D), methanesulfonate

Work on `Cc1cc(Nc2ncnc3[nH]ccc23)c(=O)n2c1C(=O)NC21CCC(F)(F)CC1` [Example 91, 4,4-Difluoro-8′-methyl-6′-(7H-pyrrolo[2,3-d]pyrimidin-4-ylamino)-2′H-spiro[cyclohexane-1,3′-imidazo[1,5-a]pyridine]-1′,5′-dione methanesulfonate] yielded a pIC50 of 8.96.
